The nature of this series: physchem. To be noted: water.

Bounds are passed on as bounds.

Method: Alternatively, the sodium salt can be prepared in situ by dissolving the free acid in phosphate buffered saline (PBS) that has been buffered to a pH of 7.4. The solubility and stability of these solutions can be improved by the use of an aqueous soluble co-solvent such as, but not limited to HPCD. This solubility can be further improved by the addition of surfactants such as PEG 400. In general, the free acid is suspended in 10 wt/vol % HPDC (10 g dissolved in 100 mL water) and treated with 0.5M PBS (pH 7.4) such that the volumes are in a ratio of 75:25.

In the case of `NS(=O)(=O)c1nn2cc(-c3ccccc3F)nc2s1` [Compound 52], the solubility (usually how much of the substance goes into solution per volume) was under 500 µg/mL.
In turn, `NS(=O)(=O)c1nn2cc(-c3cccc(F)c3)nc2s1` [Compound 53] showed a solubility of under 500 µg/mL.
On to `NS(=O)(=O)c1nn2cc(-c3ccc(F)cc3)nc2s1` [Compound 54], for which the solubility is under 500 µg/mL.
With `NS(=O)(=O)c1nn2cc(-c3ccc(F)c(F)c3)nc2s1` [Compound 55] the figure was under 500 µg/mL; with `NS(=O)(=O)c1nn2cc(-c3ccc(Cl)cc3)nc2s1` [Compound 56], under 500 µg/mL; with `NS(=O)(=O)c1nn2cc(-c3ccc(Cl)c(Cl)c3)nc2s1` [Compound 57], under 500 µg/mL.
As for `NS(=O)(=O)c1nn2cc(-c3ccc(Cl)c(Cl)c3Cl)nc2s1` [Compound 58], the solubility is under 500 µg/mL.
The molecule `NS(=O)(=O)c1nn2cc(-c3cccc(Br)c3)nc2s1` [Compound 59] displayed a solubility of under 500 µg/mL.
With `NS(=O)(=O)c1nn2cc(-c3ccc(Br)cc3)nc2s1` [Compound 60] the figure was under 500 µg/mL; with `COc1cccc(-c2cn3nc(S(N)(=O)=O)sc3n2)c1` [Compound 61], under 500 µg/mL.
`COc1ccc(-c2cn3nc(S(N)(=O)=O)sc3n2)cc1` [Compound 62]: the solubility is under 500 µg/mL.
Molecule `COc1ccc(OC)c(-c2cn3nc(S(N)(=O)=O)sc3n2)c1` [Compound 63] displayed a solubility of under 500 µg/mL.
Next, `COc1ccc(-c2cn3nc(S(N)(=O)=O)sc3n2)c(OC)c1` [Compound 64]: under 500 µg/mL; `NS(=O)(=O)c1nn2cc(-c3ccc4c(c3)OCO4)nc2s1` [Compound 65]: under 500 µg/mL.
For the molecule `NS(=O)(=O)c1nn2cc(-c3cccc(OC(F)(F)F)c3)nc2s1` [Compound 66], the solubility was under 500 µg/mL.
In turn, `NS(=O)(=O)c1nn2cc(-c3ccc(OC(F)(F)F)cc3)nc2s1` [Compound 67] showed a solubility of under 500 µg/mL.
The molecule `NS(=O)(=O)c1nn2cc(-c3ccc(OCCO)cc3)nc2s1` [Compound 68] had a solubility of under 500 µg/mL.
On to `CC(=O)OCCOc1ccc(-c2cn3nc(S(N)(=O)=O)sc3n2)cc1` [Compound 69], for which the solubility was under 500 µg/mL.
For the molecule `NS(=O)(=O)c1nn2cc(-c3ccc(OCCC(F)(F)F)cc3)nc2s1` [Compound 70], the solubility was under 500 µg/mL.
Molecule `COCCOCCOc1ccc(-c2cn3nc(S(N)(=O)=O)sc3n2)cc1` [Compound 71] registered a solubility of under 500 µg/mL.
On to `NS(=O)(=O)c1nn2cc(-c3ccc(OCCOCc4ccccc4)cc3)nc2s1` [Compound 72], for which the solubility was under 500 µg/mL.
Consider `NS(=O)(=O)c1nn2cc(-c3ccc(OCCCOCc4ccccc4)cc3)nc2s1` [Compound 73], for which the solubility was under 500 µg/mL.
With `NS(=O)(=O)c1nn2cc(-c3cccc([N+](=O)[O-])c3)nc2s1` [Compound 74] the figure was under 500 µg/mL; with `NS(=O)(=O)c1nn2cc(-c3ccc(Cl)c([N+](=O)[O-])c3)nc2s1` [Compound 75], under 500 µg/mL.
Turning to `COC(=O)c1ccc(-c2cn3nc(S(N)(=O)=O)sc3n2)cc1` [Compound 76], the solubility was under 500 µg/mL.
The molecule `N#Cc1cccc(-c2cn3nc(S(N)(=O)=O)sc3n2)c1` [Compound 77] yielded a solubility of under 500 µg/mL.
On to `N#Cc1ccc(-c2cn3nc(S(N)(=O)=O)sc3n2)cc1` [Compound 78], for which the solubility was under 500 µg/mL.
Next, `Cc1ccc(-c2cn3nc(S(N)(=O)=O)sc3n2)cc1` [Compound 79]: under 500 µg/mL; `Cc1ccc(-c2cn3nc(S(N)(=O)=O)sc3n2)c(C)c1` [Compound 80]: under 500 µg/mL.
The molecule `CC(C)(C)c1ccc(-c2cn3nc(S(N)(=O)=O)sc3n2)cc1` [Compound 81] showed a solubility of under 500 µg/mL.
With `CC(C)(C)c1cc(-c2cn3nc(S(N)(=O)=O)sc3n2)c2c(c1)C(C)(C)CC2` [Compound 82] the figure was under 500 µg/mL.
For the molecule `Cc1ccc(C23CC4CC(CC2C4)C3)cc1-c1cn2nc(S(N)(=O)=O)sc2n1` [Compound 83], the solubility was under 500 µg/mL.
`NS(=O)(=O)c1nn2cc(-c3ccc(C(F)(F)F)cc3)nc2s1` [Compound 84]: the solubility was under 500 µg/mL.
With `NS(=O)(=O)c1nn2cc(-c3cc(C(F)(F)F)ccc3Cl)nc2s1` [Compound 85] the figure was under 500 µg/mL.
For the molecule `NS(=O)(=O)c1nn2cc(-c3cc(C(F)(F)F)cc(C(F)(F)F)c3)nc2s1` [Compound 86], the solubility was under 500 µg/mL.
With `CC(C)(C)c1cc(-c2cn3nc(S(N)(=O)=O)sc3n2)cc(C(C)(C)C)c1` [Compound 87] the figure was under 500 µg/mL.
The molecule `CC1(C)CCC(C)(C)c2cc(-c3cn4nc(S(N)(=O)=O)sc4n3)ccc21` [Compound 88] displayed a solubility of under 500 µg/mL.
Take `CC(=O)N[C@H](C)c1ccc(-c2cn3nc(S(N)(=O)=O)sc3n2)cc1` [Compound 90]: the solubility is under 500 µg/mL.
Consider `NS(=O)(=O)c1nn2cc(C(F)(F)F)nc2s1` [Compound 91], for which the solubility was under 500 µg/mL.
With `NS(=O)(=O)c1nn2cc(C34CC5CC(CC(C5)C3)C4)nc2s1` [Compound 92], the solubility is under 500 µg/mL.
The molecule `NS(=O)(=O)c1nn2cc(-c3cccc4ccccc34)nc2s1` [Compound 93] returned a solubility of under 500 µg/mL.
Molecule `NS(=O)(=O)c1nn2cc(-c3ccc4ccccc4c3)nc2s1` [Compound 94] displayed a solubility of under 500 µg/mL.
For the molecule `NS(=O)(=O)c1nn2cc(-c3ccc(N4CCCCC4)cc3)nc2s1` [Compound 96], the solubility is under 500 µg/mL.
For the molecule `NS(=O)(=O)c1nn2cc(-c3ccc(-c4ccccc4)cc3)nc2s1` [Compound 98], the solubility was under 500 µg/mL.
Molecule `NS(=O)(=O)c1nn2cc(-c3ccc(-c4c(F)c(F)c(F)c(F)c4F)cc3)nc2s1` [Compound 99] showed a solubility of under 500 µg/mL.
With `COc1ccccc1-c1ccc(-c2cn3nc(S(N)(=O)=O)sc3n2)cc1` [Compound 100] the figure was under 500 µg/mL.
With `COc1ccc(-c2ccc(-c3cn4nc(S(N)(=O)=O)sc4n3)cc2)cc1` [Compound 101], the solubility is under 500 µg/mL.
As for `NS(=O)(=O)c1nn2cc(-c3ccc(-c4cccc(OC(F)(F)F)c4)cc3)nc2s1` [Compound 102], the solubility was under 500 µg/mL.
With `NS(=O)(=O)c1nn2cc(-c3ccc(-c4ccc5c(c4)OCO5)cc3)nc2s1` [Compound 103], the solubility was under 500 µg/mL.
`NS(=O)(=O)c1nn2cc(-c3ccc(-c4ccccc4C(F)(F)F)cc3)nc2s1` [Compound 104] displayed a solubility of under 500 µg/mL.
With `NS(=O)(=O)c1nn2cc(-c3ccc(-c4ccc(C(F)(F)F)cc4)cc3)nc2s1` [Compound 105] the figure was under 500 µg/mL; with `NS(=O)(=O)c1nn2cc(-c3ccc(-c4cc(C(F)(F)F)cc(C(F)(F)F)c4)cc3)nc2s1` [Compound 106], under 500 µg/mL.
Molecule `NS(=O)(=O)c1nn2cc(-c3ccc(-c4cccs4)cc3)nc2s1` [Compound 107] had a solubility of under 500 µg/mL.
With `NS(=O)(=O)c1nn2cc(-c3ccc(-c4ccsc4)cc3)nc2s1` [Compound 108], the solubility is under 500 µg/mL.
With `COc1ccc(-c2cccc(-c3cn4nc(S(N)(=O)=O)sc4n3)c2)cc1` [Compound 109] the figure was under 500 µg/mL.
`NS(=O)(=O)c1nn2cc(-c3ccc(Oc4ccccc4)cc3)nc2s1` [Compound 110] returned a solubility of under 500 µg/mL.
With `NS(=O)(=O)c1nn2cc(-c3ccc(Oc4ccc(F)cc4)cc3)nc2s1` [Compound 111], the solubility is under 500 µg/mL.
The molecule `NS(=O)(=O)c1nn2cc(-c3ccc(Oc4ccc(F)c(F)c4)cc3)nc2s1` [Compound 112] showed a solubility of under 500 µg/mL.
Next, `NS(=O)(=O)c1nn2cc(-c3ccc(Oc4ccc(Cl)c(Cl)c4)cc3)nc2s1` [Compound 113]: under 500 µg/mL; `NS(=O)(=O)c1nn2cc(-c3ccc(Oc4ccccc4Br)cc3)nc2s1` [Compound 114]: under 500 µg/mL.
With `NS(=O)(=O)c1nn2cc(-c3ccc(Oc4cccc(Br)c4)cc3)nc2s1` [Compound 115] the figure was under 500 µg/mL.
Consider `CN(C)c1cccc(Oc2ccc(-c3cn4nc(S(N)(=O)=O)sc4n3)cc2)c1` [Compound 117], for which the solubility was under 500 µg/mL.
Turning to `CC(C)c1ccc(Oc2ccc(-c3cn4nc(S(N)(=O)=O)sc4n3)cc2)cc1` [Compound 118], the solubility is under 500 µg/mL.
The molecule `COc1ccc(Oc2ccc(-c3cn4nc(S(N)(=O)=O)sc4n3)cc2)cc1` [Compound 119] returned a solubility of under 500 µg/mL.
Next, `NS(=O)(=O)c1nn2cc(-c3ccc(Oc4ccc([N+](=O)[O-])cc4)cc3)nc2s1` [Compound 120]: under 500 µg/mL; `Cc1ccc(-c2cn3nc(S(N)(=O)=O)sc3n2)cc1Cl` [Compound 122]: under 500 µg/mL; `NS(=O)(=O)c1nn2cc(-c3ccccn3)nc2s1` [Compound 123]: under 500 µg/mL.
In turn, `NS(=O)(=O)c1nn2cc(-c3cnccn3)nc2s1` [Compound 126] had a solubility of under 500 µg/mL.
In turn, `NS(=O)(=O)c1nn2cc(-c3cc4ccccc4oc3=O)nc2s1` [Compound 127] registered a solubility of under 500 µg/mL.
For `NS(=O)(=O)c1nn2cc(-c3ccc4c(c3)NC(=O)CO4)nc2s1` [Compound 128], the solubility was under 500 µg/mL.
Molecule `NS(=O)(=O)c1nn2cc(-c3cc4ccccc4o3)nc2s1` [Compound 129] came in with a solubility of under 500 µg/mL.
Next, `NS(=O)(=O)c1nn2cc(-c3cccs3)nc2s1` [Compound 130]: under 500 µg/mL; `NS(=O)(=O)c1nn2cc(-c3ccc(-c4ccccc4)s3)nc2s1` [Compound 131]: under 500 µg/mL; `Br.NS(=O)(=O)c1nn2cc(-c3ccc([N+](=O)[O-])s3)nc2s1` [Compound 132]: under 500 µg/mL.
Take `Cc1c(-c2cn3nc(S(N)(=O)=O)sc3n2)sc2ccccc12` [Compound 133]: the solubility was under 500 µg/mL.
In turn, `NS(=O)(=O)c1nn2cc(-c3cc(-c4ccccc4)no3)nc2s1` [Compound 135] came in with a solubility of under 500 µg/mL.
In turn, `Cc1onc(-c2ccccc2)c1-c1cn2nc(S(N)(=O)=O)sc2n1` [Compound 136] displayed a solubility of under 500 µg/mL.
Next, `Cc1c(-c2cn3nc(S(N)(=O)=O)sc3n2)cnn1-c1ccccc1` [Compound 137]: under 500 µg/mL; `NS(=O)(=O)c1nn2cc(-c3nccs3)nc2s1` [Compound 138]: under 500 µg/mL; `Cc1nc(C)c(-c2cn3nc(S(N)(=O)=O)sc3n2)s1` [Compound 139]: under 500 µg/mL.

The values are drawn from patent US20070112043A1, “Acylated and non-acylated imidazo[2,1-b]-1,3,4,-thiadiazole-2-sulfonamides, and uses thereof” (priority 2003, published 2007).
